# Data from patent publication US8618299B2, “Azinone-substituted azapolycycle MCH-1 antagonists, methods of making, and use thereof” (Albany Molecular Research, Inc., priority 2009, dated 2013).
# Where a name gives a salt, the structure may show the parent alone.
# System: not given
# Experiment: not given
# Settings: not given
row,SMILES,melting point
1,"Cn1c2c(c3ccc(-n4ccc(OCc5ccc(F)cn5)cc4=O)cc31)C1CCCN1CC2 (stereo not shown) (as salt: hydrochloride) [Example 19, 4-((5-Fluoropyridin-2-yl)methoxy)-1-(7-methyl-2,3,5,6,7,11c-hexahydro-1H-indolizino[7,8-b]indol-9-yl)pyridin-2(1H)-one Dihydrochloride]",240 to 243 °C
2,"Cc1ccc(-c2ccn(-c3ccc4c5c(n(C)c4c3)CC3CCCN3C5)c(=O)c2)cn1 (stereo not shown) (as salt: hydrochloride) [Example 13, 1-(10-Methyl-2,3,5,10,11,11a-hexahydro-1H-indolizino[7,6-b]indol-8-yl)-4-(6-methylpyridin-3-yl)pyridin-2(1H)-one Hydrochloride]",305 °C (dec.)
3,"Cc1ccc(COc2ccn(-c3ccc4c5c(n(C)c4c3)CCN3CCCC53)c(=O)c2)cn1 (stereo not shown) (as salt: hydrochloride) [Example 20, 1-(7-Methyl-2,3,5,6,7,11c-hexahydro-1H-indolizino[7,8-b]indol-9-yl)-4-((6-methylpyridin-3-yl)methoxy)pyridin-2(1H)-one Dihydrochloride]",280 to 282 °C
4,"Cn1c2c(c3ccc(-n4ccc(OCc5ccc(F)cn5)cc4=O)cc31)CCN1CCCC21 (stereo not shown) (as salt: hydrochloride) [Example 43, 4-((5-Fluoropyridin-2-yl)methoxy)-1-(11-methyl-2,3,5,6,11,11b-hexahydro-1H-indolizino[8,7-b]indol-9-yl)pyridin-2(1H)-one Dihydrochloride]",290 to 293 °C

# Further lines, results first:
row,melting point,SMILES
1,280 to 283 °C,"Cc1ccc(-c2ccn(-c3ccc4c5c(n(C)c4c3)CCN3CCCC53)c(=O)c2)cn1 (stereo not shown) (as salt: hydrochloride) [Example 15, 1-(7-Methyl-2,3,5,6,7,11c-hexahydro-1H-indolizino[7,8-b]indol-9-yl)-4-(6-methylpyridin-3-yl)pyridin-2(1H)-one Hydrochloride]"
2,235 to 238 °C,"Cn1c2c(c3ccc(-n4ccc(OCc5ccc(F)cn5)cc4=O)cc31)CN1CCCCC1C2 (stereo not shown) (as salt: hydrochloride) [Example 37, 4-((5-Fluoropyridin-2-yl)methoxy)-1-(5-methyl-5,6,6a,7,8,9,10,12-octahydroindolo[2,3-b]quinolizin-3-yl)pyridin-2(1H)-one Dihydrochloride]"
3,290 to 293 °C,"Cn1c2c(c3ccc(-n4ccc(OCc5ccc(F)cn5)cc4=O)cc31)CN1CCCC1C2 (stereo not shown) (as salt: hydrochloride) [Example 12, 4-((5-Fluoropyridin-2-yl)methoxy)-1-(10-methyl-2,3,5,10,11,11a-hexahydro-1H-indolizino[7,6-b]indol-8-yl)pyridin-2(1H)-one Hydrochloride]"
4,256 to 258 °C,"Cn1c2c(c3ccc(-n4ccc(OCc5ccc(F)cn5)cc4=O)cc31)C1CCCCN1CC2 (stereo not shown) (as salt: hydrochloride) [Example 21, 4-((5-Fluoropyridin-2-yl)methoxy)-1-(8-methyl-1,2,3,4,6,7,8,12c-octahydroindolo[3,2-a]quinolizin-10-yl)pyridin-2(1H)-one Hydrochloride]"

# Molecular target: human MCH-1 receptor (Homo sapiens (Human), UniProt Q99705)
# Sequence (Q99705 whole entry): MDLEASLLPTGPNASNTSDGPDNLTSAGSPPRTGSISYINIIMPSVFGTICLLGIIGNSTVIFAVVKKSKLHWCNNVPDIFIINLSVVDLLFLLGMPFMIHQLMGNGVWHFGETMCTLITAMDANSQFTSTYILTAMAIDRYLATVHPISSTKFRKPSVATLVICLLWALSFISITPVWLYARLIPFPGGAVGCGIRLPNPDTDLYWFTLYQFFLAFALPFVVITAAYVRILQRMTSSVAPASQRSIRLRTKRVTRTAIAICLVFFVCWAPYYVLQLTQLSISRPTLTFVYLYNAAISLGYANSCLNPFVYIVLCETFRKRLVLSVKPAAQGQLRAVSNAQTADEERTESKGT
# Experiment: Binding assay for human melanin-concentrating hormone (MCH1) receptor
# Settings: membranes from CHO-K1 cells expressing human MCH1 receptor; 1.4 nM [3H]-labeled radioligand, 60 min at 25° C., pH 7.4; Ki from Cheng Prusoff equation
# Experimental: Binding Assay for Human Melanin-Concentrating Hormone (MCH1) Receptor
# Evaluation of the affinity of compounds for the human MCH-1 receptor was accomplished using 4-(3,4,5-tritritiumbenzyloxy)-1-(1-(2-(pyrrolidin-1-yl)ethyl)-1H-indazol-5-yl)pyridin-2(1H)-one and membranes prepared from stable CHO-K1 cells expressing the human MCH1 receptor obtained from Euroscreen (Batch 1138). Cell membrane homogenates (8.92 μg protein) were incubated for 60 min at 25° C. with 1.4 nM of the [^3H]-labeled compound in the absence or presence of the test compound in 50 mM Tris-HCl buffer, pH 7.4. Nonspecific binding was determined in the presence of 50 μM 1-(5-(4-cyanophenyl)bicyclo[3.1.0]hexan-2-yl)-3-(4-fluoro-3-(trifluoromethyl)phenyl)-1-(3-(4-methylpiperazin-1-yl)propyl)urea. Following incubation, the samples were filtered rapidly under vacuum through Skatron 11731 filters, pre-soaked in 0.5% polyethylenimine, and washed with ice-cold 50 mM Tris-HCl buffer, pH 7.4, (wash setting 9,9,0) using a Skatron cell harvester. The filters were counted for radioactivity in a liquid scintillation counter (Tri-Carb 2100TR, Packard) using a scintillation cocktail (Ultima Gold MV, Perkin Elmer).
# The results are expressed as a percent inhibition of the control radioligand specific binding. The IC50 value (concentration causing a half-maximal inhibition of control specific binding) and Hill coefficient (nH) were determined by non-linear regression analysis of the competition curve using Hill equation curve fitting. The inhibition constant (Ki) was calculated from the Cheng Prusoff equation: (Ki=IC50/(1+(L/KD)), where L=concentration of radioligand in the assay, and KD=affinity of the radioligand for the receptor.
row,SMILES,Ki [nM]
1,"Cc1ccc(COc2ccn(-c3ccc4c5c(n(C)c4c3)CC3CCCN3C5)c(=O)c2)cn1 (stereo not shown) [Example 31, 1-(10-Methyl-2,3,5,10,11,11a-hexahydro-1H-indolizino[7,6-b]indol-8-yl)-4-((6-methylpyridin-3-yl)methoxy)pyridin-2(1H)-one Hydrochloride]",22
2,"Cn1c2c(c3ccc(-n4ccc(OCc5ccc(F)cn5)cc4=O)cc31)C1CCCCN1CC2 (stereo not shown) [Example 21, 4-((5-Fluoropyridin-2-yl)methoxy)-1-(8-methyl-1,2,3,4,6,7,8,12c-octahydroindolo[3,2-a]quinolizin-10-yl)pyridin-2(1H)-one Hydrochloride]",8.4
3,"Cn1c2c(c3ccc(-n4ccc(OCc5ccc(F)cn5)cc4=O)nc31)C1CCCN1CC2 (stereo not shown) [Example 45, 4-((5-Fluoropyridin-2-yl)methoxy)-1-(7-methyl-2,3,5,6,7,11c-hexahydro-1H-pyrido[3′,2′:4,5]pyrrolo[2,3-g]indolizin-9-yl)pyridin-2(1H)-one Hydrochloride]",21
4,"O=c1cc(OCc2ccc(Cl)cc2F)ccn1-c1ccc2c3c([nH]c2c1)CC1CCCN1C3 (stereo not shown) [Example 42, 4-(4-Chloro-2-fluorobenzyloxy)-1-(2,3,5,10,11,11a-hexahydro-1H-indolizino[7,6-b]indol-8-yl)pyridin-2(1H)-one Hydrochloride]",19
5,"Cc1ccc(COc2ccn(-c3ccc4c5c(n(C)c4c3)CC3CCCCN3C5)c(=O)c2)cn1 (stereo not shown) [Example 33, 1-(5-Methyl-5,6,6a,7,8,9,10,12-octahydroindolo[2,3-b]quinolizin-3-yl)-4-((6-methylpyridin-3-yl)methoxy)pyridin-2(1H)-one Dihydrochloride]",31
6,"Cc1ccc(COc2ccn(-c3ccc4c5c(n(C)c4c3)CCN3CCCC53)c(=O)c2)cn1 (stereo not shown) [Example 20, 1-(7-Methyl-2,3,5,6,7,11c-hexahydro-1H-indolizino[7,8-b]indol-9-yl)-4-((6-methylpyridin-3-yl)methoxy)pyridin-2(1H)-one Dihydrochloride]",13
7,"Cn1c2c(c3ccc(-n4ccc(OCc5ccc(F)cn5)cc4=O)cc31)CCN1CCCC21 (stereo not shown) [Example 43, 4-((5-Fluoropyridin-2-yl)methoxy)-1-(11-methyl-2,3,5,6,11,11b-hexahydro-1H-indolizino[8,7-b]indol-9-yl)pyridin-2(1H)-one Dihydrochloride]",26
8,"Cn1c2c(c3ccc(-n4ccc(OCc5ccc(F)cn5)cc4=O)cc31)C1CCCN1CC2 (stereo not shown) [Example 19, 4-((5-Fluoropyridin-2-yl)methoxy)-1-(7-methyl-2,3,5,6,7,11c-hexahydro-1H-indolizino[7,8-b]indol-9-yl)pyridin-2(1H)-one Dihydrochloride]",11
9,"Cc1ccc(-c2ccn(-c3ccc4c5c(n(C)c4c3)CCN3CCCC53)c(=O)c2)cn1 (stereo not shown) [Example 15, 1-(7-Methyl-2,3,5,6,7,11c-hexahydro-1H-indolizino[7,8-b]indol-9-yl)-4-(6-methylpyridin-3-yl)pyridin-2(1H)-one Hydrochloride]",76
10,"O=c1cc(OCc2ccccc2)ccn1-c1ccc2c3c([nH]c2c1)CCN1CCCC31 (stereo not shown) [Example 24, 4-(Benzyloxy)-1-(2,3,5,6,7,11c-hexahydro-1H-indolizino[7,8-b]indol-9-yl)pyridin-2(1H)-one Hydrochloride]",6

# Further lines, results first:
row,Ki [nM],SMILES
1,193,"Cc1ccc(-c2ccn(-c3ccc4c5c(n(C)c4c3)CC3CCCCN3C5)c(=O)c2)cn1 (stereo not shown) [Example 35, 1-(5-Methyl-5,6,6a,7,8,9,10,12-octahydroindolo[2,3-b]quinolizin-3-yl)-4-(6-methylpyridin-3-yl)pyridin-2(1H)-one Dihydrochloride]"
2,14,"O=c1cc(OCc2ccc(F)cn2)ccn1-c1ccc2c3c([nH]c2c1)CC1CCCN1C3 (stereo not shown) [Example 40, 4-((5-Fluoropyridin-2-yl)methoxy)-1-(2,3,5,10,11,11a-hexahydro-1H-indolizino[7,6-b]indol-8-yl)pyridin-2(1H)-one Hydrochloride]"
3,19,"Cc1ccc(COc2ccn(-c3ccc4c5c(n(C)c4c3)CCN3CCCCC53)c(=O)c2)cn1 (stereo not shown) [Example 23, 1-(8-Methyl-1,2,3,4,6,7,8,12c-octahydroindolo[3,2-a]quinolizin-10-yl)-4-((6-methylpyridin-3-yl)methoxy)pyridin-2(1H)-one Dihydrochloride]"
4,59,"Cc1ccc(-c2ccn(-c3ccc4c5c(n(C)c4c3)CC3CCCN3C5)c(=O)c2)cn1 (stereo not shown) [Example 13, 1-(10-Methyl-2,3,5,10,11,11a-hexahydro-1H-indolizino[7,6-b]indol-8-yl)-4-(6-methylpyridin-3-yl)pyridin-2(1H)-one Hydrochloride]"
5,14,"O=c1cc(OCc2ccc(F)cn2)ccn1-c1ccc2c3c([nH]c2c1)CCN1CCCC31 (stereo not shown) [Example 25, 4-((5-Fluoropyridin-2-yl)methoxy)-1-(2,3,5,6,7,11c-hexahydro-1H-indolizino[7,8-b]indol-9-yl)pyridin-2(1H)-one Hydrochloride]"
6,47,"Cn1c2c(c3ccc(-n4ccc(OCc5ccccc5)cc4=O)cc31)CCN1CCCCCC21 (stereo not shown) [Example 10, 4-(Benzyloxy)-1-(13-methyl-2,3,4,5,7,8,13,13b-octahydro-1H-pyrido[1,2-a]azepino[10,9-b]indol-10-yl)pyridin-2(1H)-one Hydrochloride]"

# Same assay, conditions: membranes from CHO-K1 cells expressing human MCH1 receptor; 1.4 nM [3H]-labeled radioligand, 60 min at 25° C., pH 7.4; Ki from Cheng Prusoff equation; Dihydrochloride
row,Ki [nM],SMILES
1,10,"Cn1c2c(c3ccc(-n4ccc(OCc5ccc(F)cn5)cc4=O)cc31)CN1CCCCC1C2 (stereo not shown) [Example 37, 4-((5-Fluoropyridin-2-yl)methoxy)-1-(5-methyl-5,6,6a,7,8,9,10,12-octahydroindolo[2,3-b]quinolizin-3-yl)pyridin-2(1H)-one Dihydrochloride]"
